One compound from patent US8871210B2, “Chemokine receptor antagonists and use thereof” (Ono Pharmaceutical Co., Ltd., priority 2005, dated 2014) can be followed below.

The experiment deals with T1, CXCR4 (Homo sapiens, UniProt P61073).
T1 construct: a human T cell strain in which CXCR4 is known to be expressed; endogenous in cells; host or cells: CEM cells (human T cell strain)
As to the kind of experiment: Inhibition of binding of human 125I-SDF-1 to CEM cells. To be noted: 125I-SDF-1, human T cell strain CEM cells, 4° C., 60 minutes. From the text: Specifically, as a system of screening a compound that inhibits the binding between SDF-1 and CXCR4, for example a system of measuring the binding between iodine-labeled SDF-1 and a human T cell strain in which CXCR4 is known to be expressed is operable. The identical idea is possible since macrophage (R5) HIV and RANTES, MIP-1α, and MIP-1β all bind to CCR5.
Study for Inhibition of Binding Human SDF-1 to CEM Cells
To human T cell strain CEM cells in a binding buffer (containing HEPES and BSA), the test compound and ^125I-SDF-1 (NEN) were added and the mixture was incubated at 4° C. for 60 minutes. The reacted CEM cells were rapidly filtrated with a GF/B membrane filter plate (Packard) to adsorb. The plate was washed with PBS three times and then dried. Microscint+20 (Packard) was added thereto. An amount of the radioactivity bound to the CEM cells was measured using Top Count (Packard) and inhibition (%) of the test compound was calculated according to the following equation: Inhibition={(Et−Ea)/(Et−Ec)}×100
Et: amount of radioactivity when the test compound is not added,
Ec: amount of radioactivity when non-radioactive SDF-1 (Pepro Tech) is added in an amount of 1000 times as much as ^125I-SDF-1 as a test compound, and
Ea: amount of radioactivity when the test compound is added.

T1 sequence (P61073 whole entry): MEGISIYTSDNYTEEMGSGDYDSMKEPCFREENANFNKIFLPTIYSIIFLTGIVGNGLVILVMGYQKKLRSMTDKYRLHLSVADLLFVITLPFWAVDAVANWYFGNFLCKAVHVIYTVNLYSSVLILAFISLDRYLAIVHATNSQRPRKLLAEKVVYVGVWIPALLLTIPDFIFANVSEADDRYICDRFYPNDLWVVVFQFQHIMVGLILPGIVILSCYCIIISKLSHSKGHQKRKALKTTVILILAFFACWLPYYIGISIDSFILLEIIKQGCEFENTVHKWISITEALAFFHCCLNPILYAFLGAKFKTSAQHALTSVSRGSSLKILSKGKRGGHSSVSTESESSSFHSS

In turn, `Cc1ccsc1CN1CCC2(CC1)CCN(Cc1ccc(C(=O)C(Cc3ncc[nH]3)Cc3ncc[nH]3)cc1)C2` [compound 14, 3-(1H-imidazol-2-yl)-2-(1H-imidazol-2-ylmethyl)-1-[4-({8-[(3-methyl-2-thienyl)methyl]-2,8-diazaspiro[4.5]dec-2-yl}methyl)phenyl]propan-1-one] yielded an IC50 of 11 nM.
